For 32 compounds, IC50 results are on record in patent US20240270741A1 (Cogent Biosciences, Inc., priority 2023, published 2024).

As usually defined, the IC50 is the concentration at which inhibition is half-maximal. A low value points to greater potency in that assay.

FGFR2, sequence (P21802 399-821 limits assumed): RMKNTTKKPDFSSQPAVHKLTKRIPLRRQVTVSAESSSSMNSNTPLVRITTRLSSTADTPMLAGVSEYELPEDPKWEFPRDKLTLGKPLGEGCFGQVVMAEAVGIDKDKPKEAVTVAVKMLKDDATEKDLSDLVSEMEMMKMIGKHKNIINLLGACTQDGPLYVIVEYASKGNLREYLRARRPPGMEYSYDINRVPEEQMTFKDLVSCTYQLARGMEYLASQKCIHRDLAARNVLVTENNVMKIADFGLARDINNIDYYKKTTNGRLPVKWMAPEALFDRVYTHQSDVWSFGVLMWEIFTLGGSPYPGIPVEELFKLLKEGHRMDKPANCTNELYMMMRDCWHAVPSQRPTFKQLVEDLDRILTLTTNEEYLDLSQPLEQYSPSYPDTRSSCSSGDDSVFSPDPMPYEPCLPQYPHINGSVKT

One assay concerns the target FGFR2 (Homo sapiens, UniProt P21802). Description: FGFR wild type enzyme assay (HTRF KinEASE-TK), FGFR2. Particulars: Enz FGFR2 (nM). (In general: TR-FRET usually uses a lanthanide donor and a delayed reading to cut background.)
With `Cc1c(-c2cc(Sc3ncccc3F)c3c(C#N)cnn3c2)cnn1C1CCN(C)CC1` [Example 107, 4-[(3-fluoro-2-pyridyl)sulfanyl]-6-[5-methyl-1-(1-methyl-4-piperidyl)pyrazol-4-yl]pyrazolo[1,5-a]pyridine3-carbonitrile], the IC50 came to 1 nM.
Still for that read-out and setting: then `Cc1c(-c2cc(Sc3ccccn3)c3c(C#N)cnn3c2)cnn1C1CCN(CCO)CC1` [Example 100, 6-(1-(1-(2-hydroxyethyl)piperidin-4-yl)-5-methyl-1H-pyrazol-4-yl)-4-(pyridin-2-ylthio)pyrazolo[1,5-a]pyridine-3-carbonitrile], with 5 nM; and `N#Cc1cnn2cc(-c3cnn([C@H]4CCCNC4)c3)cc(Sc3cccnn3)c12` [Example 82, 6-[1-[(3S)-3-piperidyl]pyrazol-4-yl]-4-pyridazin-3-ylsulfanyl-pyrazolo[1,5-a]pyridine-3-carbonitrile], with 32 nM.

The same assay, now with this note: Enz FGFR2 (nM), FGFR2 wild type enzyme.
In turn, `Cc1c(-c2cc(Sc3ncccc3F)c3c(C#N)cnn3c2)cnn1C1CCNC(C)(C)C1` (centres unmarked) [Example 178] showed an IC50 of 1 nM.
As to `COCCN1CCC(n2ncc(-c3cc(Sc4ccccc4C#N)c4c(C#N)cnn4c3)c2C)CC1` [Example 139, 4-((2-cyanophenyl)thio)-6-(1-(1-(2-methoxyethyl)piperidin-4-yl)-5-methyl-1H-pyrazol-4-yl)pyrazolo[1,5-a]pyridine-3-carbonitrile], the IC50 is 1 nM.
`Cc1c(-c2cc(Sc3ncccc3F)c3c(C#N)cnn3c2)cnn1C1CCN(C(=O)[C@H](C)N(C)C)CC1` [Example 215, 6-(1-(1-(dimethyl-L-alanyl)piperidin-4-yl)-5-methyl-1H-pyrazol-4-yl)-4-((3-fluoropyridin-2-yl)thio)pyrazolo[1,5-a]pyridine-3-carbonitrile] gave an IC50 of 1.6 nM.
Compound `CC(=O)N1CCC([C@@H](C)n2ncc(-c3cc(Sc4ncccc4F)c4c(C#N)cnn4c3)c2C)CC1` [Example 174, (R)-6-(1-(1-(1-acetylpiperidin-4-yl)ethyl)-5-methyl-1H-pyrazol-4-yl)-4-((3-fluoropyridin-2-yl)thio)pyrazolo[1,5-a]pyridine-3-carbonitrile] displayed an IC50 of 4 nM.
Take `CN(C)[C@H]1CC[C@@H](n2cc(-c3cc(Sc4ccccc4C#N)c4c(C#N)cnn4c3)cn2)CC1` [Example 298, 4-((2-cyanophenyl)thio)-6-(1-((1s,4s)-4-(dimethylamino)cyclohex-yl)-1H-pyrazol-4-yl)pyrazolo[1,5-a]pyridine-3-carbonitrile]: the IC50 stood at 0.5 nM. Against the preceding compound, the IC50 is about 8-fold lower.
In turn, `Cc1c(-c2cc(Sc3ncccc3F)c3c(C#N)cnn3c2)cnn1[C@H]1CC[C@@H](N(C)C(=O)C(C)(C)N)CC1` [Example 254, 2-amino-N-((1s,4s)-4-(4-(3-cyano-4-((3-fluoropyridin-2-yl)thio)pyrazolo[1,5-a]pyridin-6-yl)-5-methyl-1H-pyrazol-1-y)cyclohexyl)-N,2-dimethylpropanamide] gave an IC50 of 1 nM.
As to `Cc1nn(C2CCN(C)CC2)c(C)c1-c1cc(Sc2ncccc2F)c2c(C#N)cnn2c1` [Example 303, 6-(3,5-dimethyl-1-(1-methylpiperidin-4-yl)-1H-pyrazol-4-yl)-4-((3-fluoropyridin-2-yl)thio)pyrazolo[1,5-a]pyridine-3-carbontirile], 6 nM corresponded to half-maximal inhibition (IC50).
Compound `Cc1c(-c2cc(Sc3ncccc3F)c3c(C#N)cnn3c2)cnn1[C@H]1CC[C@@H](NC(=O)C(C)(C)O)CC1` [Example 271, N-((1s,4s)-4-(4-(3-cyano-4-((3-fluoropyridin-2-yl)thio)pyrazolo[1,5-a]pyridin-6-yl)-5-methyl-1H-pyrazol-1-yl)cyclohexyl)-2-hydroxy-2-methylpropanamide] showed an IC50 of 1 nM.
Consider `CN[C@H]1CC[C@@H](n2ncc(-c3cc(Sc4ccccn4)c4c(C#N)cnn4c3)c2C)CC1` [Example 311, 6-(5-methyl-1-((1s,4s)-4-(methylamino)cyclohexyl)-1H-pyrazol-4-yl)-4-(pyridin-2-ylthio)pyrazolo[1,5-a]pyridine-3-carbonitrile], for which the midpoint of inhibition, the IC50, lay at 2 nM.
Still for that read-out and setting: then `CC(=O)N1CCC[C@H](n2ncc(-c3cc(Sc4ccc(F)cn4)c4c(C#N)cnn4c3)c2C)C1` [Example 308, (S)-6-(1-(1-acetylpiperidin-3-yl)-5-methyl-1H-pyrazol-4-yl)-4-((5-fluoropyridin-2-yl)thio)pyrazolo[1,5-a]pyridine-3-carbonitrile], with 7 nM; and `Cc1c(-c2cc(Sc3ncccc3F)c3c(C#N)cnn3c2)cnn1[C@H]1CC[C@@H](NCC(F)(F)F)CC1` [Example 244, 4-((3-fluoropyridin-2-yl)thio)-6-(5-methyl-1-((1s,4s)-4-((2,2,2-trifluoroethyl)amino)cyclo-hexyl)-1H-pyrazol-4-yl)pyrazolo[1,5-a]pyridine-3-carbonitrile], with 2.5 nM.
In turn, `Cc1c(-c2cc(Sc3c(F)cc(F)cc3C#N)c3c(C#N)cnn3c2)cnn1C1CCN(C)CC1` [Example 151] had an IC50 of 2 nM.

The assay is the same for the next values; noted with them: Enz FGFR2 (nM), FGFR2 wild type enzyme assay.
Consider `Cc1c(-c2cc(Sc3ccc(F)cc3C#N)c3c(C#N)cnn3c2)cnn1[C@H]1CCC[C@@H](O)C1` [Example 498, 4-((2-cyano-4-fluorophenyl)thio)-6-(1-((1S,3R)-3-hydroxycyclohexyl)-5-methyl-1H-pyrazol-4-yl)pyrazolo[1,5-a]pyridine-3-carbonitrile], for which the IC50 turned out to be 2 nM.
Turning to `N#Cc1ccccc1Sc1cc(-c2cn([C@H]3CCCNC3)nn2)cn2ncc(C#N)c12` [Example 461, (S)-4-((2-cyanophenyl)thio)-6-(1-(piperidin-3-yl)-1H-1,2,3-triazol-4-yl)pyrazolo[1,5-a]pyridine-3-carbonitrile], it took 4 nM to reach half-maximal inhibition (IC50).
In the case of `N#Cc1cnn2cc(-c3ccc(N4CC[C@@H](O)C4)nc3)cc(Sc3ncccc3F)c12` [Example 551, (R)-4-((3-fluoropyridin-2-yl)thio)-6-(6-(3-hydroxypyrrolidin-1-yl)pyridin-3-yl)pyrazolo[1,5-a]pyridine-3-carbonitrile], the IC50 stood at 2 nM.
Consider `N#Cc1cc(F)ccc1Sc1cc(-c2cnn(-c3cn[nH]c3)c2)cn2ncc(C#N)c12` [Example 546, 6-(1′H-[1,4′-bipyrazol]-4-yl)-4-((2-cyano-4-fluorophenyl)thio)pyrazolo [1,5-a]pyridine-3-carbonitrile], for which half-maximal inhibition (IC50) required 6 nM. This IC50 is about 3-fold higher than that of the compound before.
With `CNC(=O)Cn1cc(-c2cc(Sc3ccccc3C#N)c3c(C#N)cnn3c2)cn1` [Example 540], the IC50 came out at 1 nM.
Regarding `N#Cc1cc(F)ccc1Sc1cc(-c2ccc(N3CCCC3)nc2)cn2ncc(C#N)c12` [Example 559, 4-((2-cyano-4-fluorophenyl)thio)-6-(6-(pyrrolidin-1-yl)pyridin-3-yl)pyrazolo[1,5-a]pyridine-3-carbonitrile], the IC50 was determined as 1 nM. That is a single-digit nanomolar value.
The compound `Cc1nn([C@H]2CCCN(C(=O)CO)C2)cc1-c1cc(Sc2ncccc2F)c2c(C#N)cnn2c1` [Example 420, (S)-4-((3-fluoropyridin-2-yl)thio)-6-(1-(1-(2-hydroxyacetyl)piperidin-3-yl)-3-methyl-1H-pyrazol-4-yl)pyrazolo[1,5-a]pyridine-3-carbonitrile] gave an IC50 of 4 nM.
Compound `N#Cc1ccccc1Sc1cc(-c2ccc(N3CCOCC3)nc2)cn2ncc(C#N)c12` [Example 495, 4-((2-cyanophenyl)thio)-6-(6-morpholinopyridin-3-yl)pyrazolo[1,5-a]pyridine-3-carbonitrile] had an IC50 of 1 nM.
`Cc1c(-c2cc(Sc3ccc(F)cc3C#N)c3c(C#N)cnn3c2)cnn1[C@H]1CCCN(c2ncccn2)C1` [Example 433, (S)-4-((2-cyano-4-fluorophenyl)thio)-6-(5-methyl-1-(1-(pyrimidin-2-yl)piperidin-3-yl)-1H-pyrazol-4-yl)pyrazolo[1,5-a]pyridine-3-carbonitrile] gave an IC50 of 5 nM.
On to `Cc1c(-c2cc(Sc3ccc(F)cc3C#N)c3c(C#N)cnn3c2)cnn1C1CCN(C[C@H](C)O)CC1` [Example 354, (S)-4-((2-cyano-4-fluorophenyl)thio)-6-(1-(1-(2-hydroxypropyl)piperidin-4-yl)-5-methyl-1H-pyrazol-4-yl)pyrazolo[1,5-a]pyridine-3-carbonitrile], for which the IC50 came out at 2.5 nM.
`Cc1c(-c2cc(Sc3ncc(F)cc3F)c3c(C#N)cnn3c2)cnn1[C@H]1CC[C@@H](NC(=O)CO)CC1` [Example 344, N-((1s,4s)-4-(4-(3-cyano-4-((3,5-difluoropyridin-2-yl)thio)pyrazolo[1,5-a]pyridin-6-yl)-5-methyl-1H-pyrazol-1-yl)cyclohexyl)-2-hydroxyacetamide] had an IC50 of 3 nM.
The compound `CC1(C)C[C@@H](n2cc(-c3cc(Sc4ccccc4C#N)c4c(C#N)cnn4c3)cn2)CCN1` [Example 621, (S)-4-((2-cyanophenyl)thio)-6-(1-(2,2-dimethylpiperidin-4-yl)-1H-pyrazol-4-yl)pyrazolo[1,5-a]pyridine-3-carbonitrile] returned an IC50 of 0.3 nM.
Same read-out and setting: then `Cc1ccc(-c2cc(Sc3ccccc3C#N)c3c(C#N)cnn3c2)cn1` [Example 539], with 9 nM; and `CN(CCO)C(=O)Cn1cc(-c2cc(Sc3ccccc3C#N)c3c(C#N)cnn3c2)cn1` [Example 669, 2-(4-(3-cyano-4-((2-cyanophenyl)thio)pyrazolo [1,5-a]pyridin-6-yl)-1H-pyrazol-1-yl)-N-(2-hydroxyethyl)-N-methylacetamide], with 1 nM; and `Cc1c(-c2cc(Sc3ccc(F)cc3C#N)c3c(C#N)cnn3c2)cnn1[C@H]1CCCN(S(C)(=O)=O)C1` [Example 402, (S)-4-((2-cyano-4-fluorophenyl)thio)-6-(5-methyl-1-(1-(methylsulfonyl)piperidin-3-yl)-1H-pyrazol-4-yl)pyrazolo[1,5-a]pyridine-3-carbonitrile], with 2 nM.
The same measure, in the same setting: with `N#Cc1ccccc1Sc1cc(-c2cnn(CC(=O)O)c2)cn2ncc(C#N)c12` [Example 573, 2-(4-(3-cyano-4-((2-cyanophenyl)thio)pyrazolo [1,5-a]pyridin-6-yl)-1H-pyrazol-1-yl)acetic acid] the figure was 4 nM.
Consider `CC(=O)N[C@H]1CC[C@@H](n2cc(-c3cc(Sc4ccc(F)cn4)c4c(C#N)cnn4c3)cn2)CC1` [Example 349, N-((1s,4s)-4-(4-(3-cyano-4-((5-fluoropyridin-2-yl)thio)pyrazolo[1,5-a]pyridin-6-yl)-1H-pyrazol-1-yl)cyclohexyl)acetamide], for which the midpoint of inhibition, the IC50, lay at 3 nM.
